ChEMBL document CHEMBL1201862, “PubChem BioAssay data set” (2004)
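Interpolation was linear, between the two tested concentrations surrounding the appropriate level; five concentrations were tested over 48 hours in 96-well plates. GI50: concentration for 50% inhibition of growth.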 The source made the active and inactive calls. Cut-off read from the data, not from the text of the source: active = GI50 up to about 1.1 µM and inactive = higher.

Columns and labels:
Experiment in all cases: NCI tumour cell line growth inhibition, 48 h
CCRF-CEM = tested on: CCRF-CEM
SF-295 = tested on: SF-295
TK-10 = tested on: TK-10
SW-620 = tested on: SW-620
HCC 2998 = tested on: HCC 2998
786-0 = tested on: 786-0
M14 = tested on: M14
SF-539 = tested on: SF-539
LOX IMVI = tested on: LOX IMVI
SK-MEL-5 = tested on: SK-MEL-5
EKVX = tested on: EKVX
UACC-257 = tested on: UACC-257
OVCAR-8 = tested on: OVCAR-8
NCI-H460 = tested on: NCI-H460
RPMI-8226 = tested on: RPMI-8226
SNB-19 = tested on: SNB-19
SK-MEL-2 = tested on: SK-MEL-2
SR = tested on: SR
NCI-H522 = tested on: NCI-H522

| SMILES | GI50 (CCRF-CEM) | GI50 (SF-295) | GI50 (TK-10) | GI50 (SW-620) | GI50 (HCC 2998) | GI50 (786-0) | GI50 (M14) | GI50 (SF-539) | GI50 (LOX IMVI) | GI50 (SK-MEL-5) | GI50 (EKVX) | GI50 (UACC-257) | GI50 (OVCAR-8) | GI50 (NCI-H460) | GI50 (RPMI-8226) | GI50 (SNB-19) | GI50 (SK-MEL-2) | GI50 (SR) | GI50 (NCI-H522) |
| --- | --- | --- | --- | --- | --- | --- | --- | --- | --- | --- | --- | --- | --- | --- | --- | --- | --- | --- | --- |
| CCCCCCOc1ccc(NC2=C(Cl)C(=O)c3cccnc3C2=O)cc1 | 1.65 µM (inactive) | 3.65 µM (inactive) | 3.3 µM (inactive) | 1.54 µM (inactive) | 1.56 µM (inactive) | 1.48 µM (inactive) | 1.3 µM (inactive) | 2.09 µM (inactive) | 1.36 µM (inactive) | 1.11 µM (active) | 1.67 µM (inactive) | 2.25 µM (inactive) | 2.03 µM (inactive) | 1.79 µM (inactive) | 0.684 µM (active) | 2.7 µM (inactive) | 1.59 µM (inactive) | – | – |
| CCC(=O)C(C(=O)CC)c1c(OC(=O)c2ccccc2)ccc(O)c1C(=O)OC | > 100 µM (inactive) | > 100 µM (inactive) | > 100 µM (inactive) | > 100 µM (inactive) | – | > 100 µM (inactive) | > 100 µM (inactive) | > 100 µM (inactive) | > 100 µM (inactive) | > 100 µM (inactive) | > 100 µM (inactive) | > 100 µM (inactive) | > 100 µM (inactive) | > 100 µM (inactive) | > 100 µM (inactive) | > 100 µM (inactive) | > 100 µM (inactive) | 89.9 µM (inactive) | > 100 µM (inactive) |
| CCOP(=O)(OCC)C1CCCOC1=O (centres undefined) | > 100 µM (inactive) | > 100 µM (inactive) | > 100 µM (inactive) | > 100 µM (inactive) | > 100 µM (inactive) | > 100 µM (inactive) | > 100 µM (inactive) | > 100 µM (inactive) | > 100 µM (inactive) | > 100 µM (inactive) | > 100 µM (inactive) | > 100 µM (inactive) | > 100 µM (inactive) | > 100 µM (inactive) | > 100 µM (inactive) | > 100 µM (inactive) | > 100 µM (inactive) | – | – |
| C1=CC(=P(c2ccccc2)(c2ccccc2)c2ccccc2)C=C1 | 3.42 µM (inactive) | 15.1 µM (inactive) | 20.7 µM (inactive) | 16.1 µM (inactive) | 10.6 µM (inactive) | 10.4 µM (inactive) | 8.22 µM (inactive) | 14.8 µM (inactive) | 6.5 µM (inactive) | 12.2 µM (inactive) | 24.2 µM (inactive) | 7.48 µM (inactive) | 4.95 µM (inactive) | 7.83 µM (inactive) | 3.18 µM (inactive) | 4.67 µM (inactive) | 13.3 µM (inactive) | – | 3.13 µM (inactive) |
| N#CC(C(=O)C(=O)Nc1ccccc1)c1ccccc1 (centres undefined) | > 100 µM (inactive) | > 100 µM (inactive) | > 100 µM (inactive) | > 100 µM (inactive) | – | > 100 µM (inactive) | > 100 µM (inactive) | > 100 µM (inactive) | > 100 µM (inactive) | – | > 100 µM (inactive) | > 100 µM (inactive) | – | – | > 100 µM (inactive) | > 100 µM (inactive) | > 100 µM (inactive) | > 100 µM (inactive) | > 100 µM (inactive) |
| CO/N=C(/C(=O)Nc1c[n+](CC(=O)[O-])cs1)c1csc(N)n1 | > 100 µM (inactive) | > 100 µM (inactive) | > 100 µM (inactive) | > 100 µM (inactive) | > 100 µM (inactive) | > 100 µM (inactive) | > 100 µM (inactive) | > 100 µM (inactive) | > 100 µM (inactive) | > 100 µM (inactive) | > 100 µM (inactive) | > 100 µM (inactive) | > 100 µM (inactive) | > 100 µM (inactive) | > 100 µM (inactive) | > 100 µM (inactive) | > 100 µM (inactive) | – | > 100 µM (inactive) |
| Cn1c(O)c(C(=O)Nc2cccs2)c(=O)[nH]c1=S | 39 µM (inactive) | 15.5 µM (inactive) | 31 µM (inactive) | 26.2 µM (inactive) | – | 20.2 µM (inactive) | 23.1 µM (inactive) | 16.5 µM (inactive) | 15.7 µM (inactive) | 13.6 µM (inactive) | – | 15.4 µM (inactive) | 14 µM (inactive) | 19.4 µM (inactive) | 19.5 µM (inactive) | 28.9 µM (inactive) | 16.4 µM (inactive) | – | 13.5 µM (inactive) |
| COc1ccc(NC(=O)CCc2cc(-c3ccc(O)c(OC)c3)nc(NC#N)n2)cc1 | > 100 µM (inactive) | > 100 µM (inactive) | – | > 100 µM (inactive) | > 100 µM (inactive) | > 100 µM (inactive) | > 100 µM (inactive) | > 100 µM (inactive) | > 100 µM (inactive) | – | > 100 µM (inactive) | > 100 µM (inactive) | > 100 µM (inactive) | > 100 µM (inactive) | – | > 100 µM (inactive) | > 100 µM (inactive) | > 100 µM (inactive) | – |
